In US20250059179A1, “Heterocyclic Compounds and Methods of Use” (AMGEN INC., priority 2021, published 2025):

How the values were obtained:
[1] = target: His-tagged KRAS G12D protein (Homo sapiens, UniProt P01116, G12D); test: KRAS G12D TR-FRET Assay; assay type: binding; conditions: biotinylated KRPep-2d substrate, 10 μM GDP;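 also: europium anti-His antibody paired with streptavidin-d2 as FRET partners, initial 30 min incubation, then peptide 1 h and detection reagents 1 h, all at room temperature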
His-tagged KRAS G12D protein, sequence (P01116 1-188 isoform P01116-2 G12D): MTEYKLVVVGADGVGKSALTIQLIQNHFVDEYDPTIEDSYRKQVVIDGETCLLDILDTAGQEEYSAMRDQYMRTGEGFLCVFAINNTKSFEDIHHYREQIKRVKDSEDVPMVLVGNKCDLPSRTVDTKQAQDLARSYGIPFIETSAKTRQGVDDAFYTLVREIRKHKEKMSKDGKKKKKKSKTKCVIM

[2] = target: GDP-bound KRAS protein (aa 1-169), containing both G12D and C118A amino acid substitutions (Homo sapiens, UniProt P01116, C118A/G12D); test: KRAS G12D Coupled Nucleotide Exchange Assay; assay type: biochemical; conditions: 2 h compound pre-incubation; SOS-mediated nucleotide exchange, cRAF AlphaScreen readout;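 also: IC50 obtained by fitting the AlphaScreen signal with a four-parameter logistic curve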
GDP-bound KRAS protein (aa 1-169), containing both G12D and C118A amino acid substitutions, sequence (P01116 1-169 isoform P01116-2 G12D/C118A): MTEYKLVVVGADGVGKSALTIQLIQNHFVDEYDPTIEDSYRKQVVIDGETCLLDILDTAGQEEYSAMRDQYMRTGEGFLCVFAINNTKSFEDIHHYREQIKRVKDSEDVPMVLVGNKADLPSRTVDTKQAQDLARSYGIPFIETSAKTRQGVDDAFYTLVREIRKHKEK

[3] = test system: Phosphorylation of ERK1/2 in A-427 cells; test: Phospho-ERK1/2 MSD Assay; assay type: cell-based; conditions: Homo sapiens, A-427, 2 h, 2 h compound treatment, read-out: pERK (A427 cells) IC50
Description: A-427 (ATCC® HTB-53™) cells were cultured in RPMI 1640 Medium (ThermoFisher Scientific 11875093) containing 10% fetal bovine serum (ThermoFisher Scientific 16000044) and 1× penicillin-streptomycin-glutamine (ThermoFisher Scientific 10378016). Sixteen hours prior to compound treatment, A-427 cells were seeded in 96-well cell culture plates at a density of 25,000 cells/well and incubated at 37° C., 5% CO2. A compound dose-response titration was diluted in growth media, added to appropriate wells of a cell culture plate, and then incubated at 37° C., 5% CO2 for 2 h. Following compound treatment, cells were washed with ice-cold Dulbecco's phosphate-buffered saline, no Ca^2+ or Mg^2+ (ThermoFisher Scientific 14190144), and then lysed in RIPA buffer (50 mM Tris-HCl pH 7.5, 1% Igepal, 0.5% sodium deoxycholate, 150 mM NaCl, and 0.5% sodium dodecyl sulfate) containing protease inhibitors (Roche 4693132001) and phosphatase inhibitors (Roche 4906837001). Phosphorylation of ERK1/2 in compound-treated lysates was assayed using Phospho-ERK1/2 Whole Cell Lysate kits (Meso Scale Discovery K151DWD) according to the manufacturer's protocol. Assay plates were read on a Meso Scale Discovery Sector Imager 6000, and data were analyzed using a 4-parameter logistic model to calculate IC50 values.

| IC50 [1] | Avg 2 h Coupled Exchange IC50 [2] | IC50 [3] | SMILES |
| --- | --- | --- | --- |
| 11 nM | 4 nM | 3100 nM | Nc1nc2c(-c3c(Cl)cc4c(N5CC6CC5CCN6)nc(OC[C@@]56CCCN5C[C@H](F)C6)nc4c3F)ccc(F)c2s1 (stereo partly drawn) [Example 34, 4-(4-(2,6-diazabicyclo[3.2.1]octan-6-yl)-6-chloro-8-fluoro-2-(((2R,7aS)-2-fluorotetrahydro-1H-pyrrolizin-7a(5H)-yl)methoxy)quinazolin-7-yl)-7-fluorobenzo[d] thiazol-2-amine] |
| 336 nM | 65 nM | > 10000 nM | CN1CCC[C@H]1COc1nc(N2CCCNCCC2)c2cc(Cl)c(-c3cccc4sc(N)nc34)c(F)c2n1 [Example 35, 4-(6-chloro-4-(1,5-diazocan-1-yl)-8-fluoro-2-(((S)-1-methylpyrrolidin-2-yl)methoxy)quinazolin-7-yl)benzo[d]thiazol-2-amine] |
| 6 nM | 13 nM | 1090 nM | Nc1nc2c(-c3c(Cl)cc4c(N5C[C@@H]6CC[C@H]5CN6)nc(OC[C@@]56CCCN5C[C@H](F)C6)nc4c3F)ccc(F)c2s1 [Example 38, 4-(4-((15,4S)-2,5-diazabicyclo[2.2.2]octan-2-yl)-6-chloro-8-fluoro-2-(((2R,7aS)-2-fluorotetrahydro-1H-pyrrolizin-7a(5H)-yl)methoxy)quinazolin-7-yl)-7-fluorobenzo[d] thiazol-2-amine] |
| 11 nM | 14 nM | 977 nM | Nc1nc2c(-c3c(Cl)cc4c(N5CCNC6CC65)nc(OC[C@@]56CCCN5C[C@H](F)C6)nc4c3F)ccc(F)c2s1 (stereo partly drawn) [Example 39, 4-(4-(2,5-diazabicyclo[4.1.0]heptan-2-yl)-6-chloro-8-fluoro-2-(((2R,7aS)-2-fluorotetrahydro-1H-pyrrolizin-7a(5H)-yl)methoxy)quinazolin-7-yl)-7-fluorobenzo[d] thiazol-2-amine] |
| 51 nM | 48 nM | 5610 nM | Nc1nc2c(-c3c(Cl)cc4c(N5CCNC6CCCC65)nc(OC[C@@]56CCCN5C[C@H](F)C6)nc4c3F)ccc(F)c2s1 (stereo partly drawn) [Example 40, 4-(6-chloro-8-fluoro-2-(((2R,7aS)-2-fluorotetrahydro-1H-pyrrolizin-7a(5H)-yl)methoxy)-4-(octahydro-1H-cyclopenta[b]pyrazin-1-yl)quinazolin-7-yl)-7-fluorobenzo[d] thiazol-2-amine] |
| 81 nM | 26 nM | > 25000 nM | Nc1nc2c(-c3c(Cl)cc4c(N5CCNCC5)nc(OC[C@@H]5C[C@@H](F)CN5)nc4c3F)cccc2s1 [Example 47, 4-(6-chloro-8-fluoro-2-(((2S,4R)-4-fluoro-pyrrolidin-2-yl)methoxy)-4-(piperazin-1-yl)quinazolin-7-yl)benzo[d] thiazol-2-amine] |
| 55 nM | 42 nM | 20200 nM | Nc1nc2c(-c3c(Cl)cc4c(N5CCNCC5)nc(OC[C@]56CCCN5[C@@H](CO)CC6)nc4c3F)cccc2s1 [Example 50, ((3R,7aR)-7a-(((7-(2-aminobenzo[d]thiazol-4-yl)-6-chloro-8-fluoro-4-(piperazin-1-yl)quinazolin-2-yl)oxy)methyl)hexahydro-1H-pyrrolizin-3-yl)methanol] |
| 53 nM | 42 nM | 16700 nM | Nc1nc2c(-c3c(Cl)cc4c(N5CCNCC5)nc(OC[C@@]56CCCN5[C@@H](CO)CC6)nc4c3F)cccc2s1 [Example 51, ((3R,7aS)-7a-(((7-(2-aminobenzo[d]thiazol-4-yl)-6-chloro-8-fluoro-4-(piperazin-1-yl)quinazolin-2-yl)oxy)methyl)hexahydro-1H-pyrrolizin-3-yl)methanol] |
| 134 nM | 59 nM | 16000 nM | CN1CC[C@H]1COc1nc(N2CCNCC2)c2cc(Cl)c(-c3cccc4sc(N)nc34)c(F)c2n1 [Example 52, 4-(6-chloro-8-fluoro-2-(((S)-1-methylazetidin-2-yl)methoxy)-4-(piperazin-1-yl)quinazolin-7-yl)benzo[d] thiazol-2-amine] |
| 414 nM | 75 nM | > 25000 nM | CN1CC[C@@H](COc2nc(N3CCNCC3)c3cc(Cl)c(-c4cccc5sc(N)nc45)c(F)c3n2)C1 [Example 53, 4-(6-chloro-8-fluoro-2-(((R)-1-methyl-pyrrolidin-3-yl)methoxy)-4-(piperazin-1-yl)quinazolin-7-yl)benzo[d] thiazol-2-amine] |
| 266 nM | 118 nM | 5670 nM | Nc1nc2c(-c3c(Cl)cc4c(N5CCNCC5)nc(OC[C@@H]5CCCN5CCF)nc4c3F)cccc2s1 [Example 56, 4-(6-chloro-8-fluoro-2-(((S)-1-(2-fluoroethyl)pyrrolidin-2-yl)methoxy)-4-(piperazin-1-yl)quinazolin-7-yl)benzo[d] thiazol-2-amine] |
| 265 nM | 141 nM | > 25000 nM | Nc1nc2c(-c3c(Cl)cc4c(N5CCNCC5)nc(OCC56CCCCN5CCC6)nc4c3F)cccc2s1 (stereo not drawn) [Example 57, 4-(6-chloro-8-fluoro-2-((hexahydro-indolizin-8a(1H)-yl)methoxy)-4-(piperazin-1-yl)quinazolin-7-yl)benzo[d] thiazol-2-amine] |
| 444 nM | 176 nM | 18200 nM | CN1CC[C@@H]1COc1nc(N2CCNCC2)c2cc(Cl)c(-c3cccc4sc(N)nc34)c(F)c2n1 [Example 58, 4-(6-chloro-8-fluoro-2-(((R)-1-methylazetidin-2-yl)methoxy)-4-(piperazin-1-yl)quinazolin-7-yl)benzo[d] thiazol-2-amine] |
| 480 nM | 343 nM | > 25000 nM | CN1CCCCC1CCOc1nc(N2CCNCC2)c2cc(Cl)c(-c3cccc4sc(N)nc34)c(F)c2n1 (stereo not drawn) [Example 60, 4-(6-chloro-8-fluoro-2-(2-(1-methylpiperidin-2-yl)ethoxy)-4-(piperazin-1-yl)quinazolin-7-yl)benzo[d] thiazol-2-amine] |
| 476 nM | 361 nM | > 25000 nM | CN1CCC[C@H]1CCOc1nc(N2CCNCC2)c2cc(Cl)c(-c3cccc4sc(N)nc34)c(F)c2n1 [Example 61, 4-(6-chloro-8-fluoro-2-(2-((S)-1-methyl-pyrrolidin-2-yl)ethoxy)-4-(piperazin-1-yl)quinazolin-7-yl)benzo[d] thiazol-2-amine] |
| 112 nM | 63 nM | > 10000 nM | Nc1nc2c(-c3c(Cl)cc4c(N5CCNCC5)nc(OC[C@@H]5CCCN5)nc4c3F)cccc2s1 [Example 72, 4-(6-chloro-8-fluoro-4-(piperazin-1-yl)-2-(((S)-pyrrolidin-2-yl)methoxy)quinazolin-7-yl)benzo[d] thiazol-2-amine] |
| 60 nM | 36 nM | > 10000 nM | C[C@@]1(COc2nc(N3CCNCC3)c3cc(Cl)c(-c4cccc5sc(N)nc45)c(F)c3n2)CCCN1 [Example 73, 4-(6-chloro-8-fluoro-2-(((S)-2-methyl-pyrrolidin-2-yl)methoxy)-4-(piperazin-1-yl)quinazolin-7-yl)benzo[d] thiazol-2-amine] |
| 228 nM | 122 nM | > 10000 nM | C[C@]1(COc2nc(N3CCNCC3)c3cc(Cl)c(-c4cccc5sc(N)nc45)c(F)c3n2)CCCN1 [Example 74, 4-(6-chloro-8-fluoro-2-(((R)-2-methyl-pyrrolidin-2-yl)methoxy)-4-(piperazin-1-yl)quinazolin-7-yl)benzo[d] thiazol-2-amine] |

| SMILES | IC50 [1] | Avg 2 h Coupled Exchange IC50 [2] | IC50 [3] |
| --- | --- | --- | --- |
| Nc1nc2c(-c3c(Cl)cc4c(N5[C@@H]6CNC[C@H]5COC6)nc(OC[C@@]56CCCN5C[C@H](F)C6)nc4c3F)ccc(F)c2s1 [Example 122, 4-(4-((1R,5S)-3-Oxa-7,9-diazabicyclo[3.3.1]nonan-9-yl)-6-chloro-8-fluoro-2-(((2R,7aS)-2-fluorotetrahydro-1H-pyrrolizin-7a(5H)-yl)methoxy)quinazolin-7-yl)-7-fluorobenzo[d]thiazol-2-amine] | 4 nM | 3 nM | 167 nM |
| Nc1nc2c(-c3c(Cl)cc4c(N5[C@@H]6CC[C@H]5CNC6)nc(OC[C@]56CCCN5C[C@H](F)C6)nc4c3F)ccc(F)c2s1 [Example 123, 4-(4-((1R,5S)-3,8-diazabicyclo[3.2.1]octan-8-yl)-6-chloro-8-fluoro-2-(((2R,7aR)-2-fluorotetrahydro-1H-pyrrolizin-7a(5H)-yl)methoxy)quinazolin-7-yl)-7-fluorobenzo[d]thiazol-2-amine] | 5 nM | 6 nM | 69 nM |
